Legend:
NF-kB-regulated genes = assay: qPCR array analysis of NF-kB-regulated transcripts in primary astrocytes; format: cell-based; conditions: astrocytes + MPTP and TNF/IFN; DIM-C-pPhOCH3 1 uM, DIM-C-pPhtBu concentration not given; FIG. 11(A)
Procedure: Expression of inflammatory genes in astrocytes is largely regulated through the NF-kB signaling pathway. Primary cultured astrocytes were treated with MPTP and TNF/IFN in the presence or absence DIM-C-pPhOCH3 (DIMS, 1 uM), DIM-C-pPhtBu (DIM4), rosiglitazone (Ro, 10 uM), or vehicle (DMSO) and subjected to qPCR array analysis of NF-kB-regulated transcripts (Superarray Biosciences). […] (n=4 biological replicates)

NOS2 protein = assay: Immunoblotting of NOS2 protein in astrocytes exposed to MPTP and TNF-α/IFN-γ; format: cell-based, mouse; conditions: FIG. 7(C), concentration not given
From the text: Primary Cell Isolation. Cortical astrocytes were isolated from day-1 old C57B1/6 or transgenic mouse pups according to procedures described previously (Aschner and Kimelberg, 1991), and purity confirmed through immunofluorescent staining using antibodies against GFAP and Iba1. Briefly, pups were euthanized by decapitation under isofluorane anesthesia and cortices (astrocytes) or striatum (neurons) rapidly dissected out, and meninges removed. Tissue was subject to digestion with Dispase (1.5 U/ml), and selection of astrocytes was performed by complete media change 24 hrs after plating to remove non-astroglial cell types by serum shock. This method routinely results in cultures that are approximately 99% pure astrocytes, with less than 1% contaminating microglial cells (Supplementary FIG. 1). Astrocyte cultures were maintained at 37° C. and 5% CO2 in minimum essential media supplemented with 10% heat-inactivated fetal bovine serum and a penicillin (0.001 mg/ml), streptomycin (0.002 mg/ml), and neomycin (0.001) antibiotic cocktail. Cell media was changed 24 hrs prior to all treatments. […]
Western Blotting. […] Protein was quantified using the BCA assay (Pierce, Rockford Ill.), and 20 μg of protein were separated by standard SDS-PAGE using a 6% slab gel (BioRad, Hercules Calif.) followed by semi-dry transfer to polyvinylidene fluoride (PVDF) membrane (Pall Corp., Pensacola, Fla.). […]

NF-κB = NF-κB EGFP reporter live-cell imaging in cis-NF-κB-EGFP transgenic astrocytes; format: cell-based, mouse; conditions: 10 μM, FIG. 4B
From the text: NF-κB reporter assays in cis-NF-κB^EGFP transgenic astrocytes and expression of mutant IκBα. To measure activation of NF-κB in live cell, astrocytes were isolated from a unique transgenic mouse expressing a reporter construct consisting of three HIV NF-κB consensus elements inserted 5′ to a minimal c-fos promoter that drives expression of enhanced green fluorescent protein (EGFP) (Magness et al., 2004) (Provided by Dr. Christian Jobin, University of North Carolina at Chapel Hill). NF-κB activity was determined by live-cell imaging using a Zeiss 20× air PlanApochromat objective using SlideBook v4.2 (Intelligent Imaging Innovations, Inc., Denver, Colo.). […] This approach was consistent between all replicates. At least four microscopic fields were examined per treatment group in each of at least three independent experiments, and reported as percent activated cells 8 hours following treatments. […]
A wide array of inflammatory genes, including Nos2, are driven by the NF-κB signaling cascade. […] Real-time imaging of GFP fluorescence was performed in control transgenic astrocytes exposed to saline and in cells exposed to MPTP and TNF-α/IFN-γ in combination with DIM-C-pPhtBu (10 μM), rosiglitazone (10 μM), or DMSO. […]

**Q.** With COc1ccc(C(c2c[nH]c3ccccc23)c2c[nH]c3ccccc23)cc1 [DIM-C-pPhOCH3, 1,1-bis(3′-indolyl)-1-(p-methoxyphenyl)methane] as the compound, how does the “Neuroinflammatory gene expression (TNF Receptor, Toll Receptor, Interleukin 1beta)” value (NF-kB-regulated genes) read?
**A.** The value was “suppressed neuroinflammatory gene expression”.

**Q.** What about the “Suppression of NOS2 protein expression” value (NOS2 protein) of the same compound?
**A.** The value was “suppression of NOS2 protein expression”.

**Q.** How did the “Neuroinflammatory gene expression (TNF Receptor, Toll Receptor, Interleukin 1beta)” value (NF-kB-regulated genes) turn out when CC(C)(C)c1ccc(C(c2c[nH]c3ccccc23)c2c[nH]c3ccccc23)cc1 [DIM-C-pPhtBu, 1,1-bis(3′-indolyl)-1-(p-t-butylphenyl)methane] was run?
**A.** Its value is “suppressed neuroinflammatory gene expression”.

**Q.** What about the “Suppression of MPTP+TNF-α/IFN-γ induced increase in total cellular GFP fluorescence (NF-κB activity)” value (NF-κB) of the same compound?
**A.** Its value is “completely suppressed”.

**Q.** Which results are given for CN(CCOc1ccc(CC2SC(=O)NC2=O)cc1)c1ccccn1 (stereo not drawn) [rosiglitazone, 5-((4-(2-(methyl-2-pyridinylamino)ethoxy)phenyl)methyl)-2,4-thiazolidinedione, reference compound]?
**A.** Suppression of MPTP+TNF-α/IFN-γ induced increase in total cellular GFP fluorescence (NF-κB activity) (NF-κB): completely suppressed; Suppression of NOS2 protein expression (NOS2 protein): suppression of NOS2 protein expression

— patent US8580843B2, “Use of diindolylmethane (DIM) compounds and derivatives as neuroprotective agents” (Colorado State University Research Foundation, priority 2008, dated 2013)
